Laboratory results as given in patent US6455540B1, “Methods of use of quinolone compounds against anaerobic pathogenic bacteria” (priority 1999, dated 2002).

Assays:
[1] = system: Actinomyces odontolyticus; test: Agar dilution MIC; type: cell-based
[2] = system: Actinomyces israelii; test: Agar dilution MIC; type: cell-based
[3] = system: Anaerobiospirillum thomasii; test: Agar dilution MIC; type: cell-based
[4] = system: Anaerobiospirillum succiniciproducens; test: Agar dilution MIC; type: cell-based
[5] = system: Bacteroides gracilis; test: Agar dilution MIC; type: cell-based, Bacteroides gracilis (Campylobacter gracilis)
[6] = system: Bacteroides tectum; test: Agar dilution MIC; type: cell-based
[7] = system: Bacteroides ureolyticus; test: Agar dilution MIC; type: cell-based
[8] = system: Bilophila wadsworthia; test: Agar dilution MIC; type: cell-based
[9] = system: Clostridium clostridioforme; test: Agar dilution MIC; type: cell-based
[10] = system: Clostridium dfficile; test: Agar dilution MIC; type: cell-based, Clostridium difficile
[11] = system: Clostridium inocuum; test: Agar dilution MIC; type: cell-based, Clostridium innocuum
[12] = system: Clostridium ramosum; test: Agar dilution MIC; type: cell-based
[13] = system: Fusobacterium spp group 1; test: Agar dilution MIC; type: cell-based
[14] = system: Fusobacterium spp. group 2; test: Agar dilution MIC; type: cell-based, Fusobacterium mortiferum, necrogenes, ulcerans; settings: Fusobacterium
[15] = system: Fusobacterium russii; test: Agar dilution MIC; type: cell-based
[16] = system: Fusobacterium varium; test: Agar dilution MIC; type: cell-based
[17] = system: Peptostreptococcus asaccharolyticus; test: Agar dilution MIC; type: cell-based
[18] = system: Peptostreptococcus magnus; test: Agar dilution MIC; type: cell-based; settings: Finegoldia magna
[19] = system: Peptostreptococcus micros; test: Agar dilution MIC; type: cell-based
[20] = system: Peptostreptococcus prevotii; test: Agar dilution MIC; type: cell-based
[21] = system: Porphyromonas asaccharolyticus; test: Agar dilution MIC; type: cell-based, Porphyromonas asaccharolytica
[22] = system: Porphyromonas canoris; test: Agar dilution MIC; type: cell-based
[23] = system: Porphyromonas gingivalis; test: Agar dilution MIC; type: cell-based; settings: Porphyromonas gingivalis
[24] = system: Porphyromonas macaccae; test: Agar dilution MIC; type: cell-based
[25] = system: Porphyromonas spp.; test: Agar dilution MIC; type: cell-based, Porphyromonas cangingivalis, cansulci, circumdentaria, levii
[26] = system: Prevotella bivia; test: Agar dilution MIC; type: cell-based
[27] = system: Prevotella buccae-oris group; test: Agar dilution MIC; type: cell-based
[28] = system: Prevotella heparinolytica; test: Agar dilution MIC; type: cell-based
[29] = system: Prevotella intermedia; test: Agar dilution MIC; type: cell-based
[30] = system: Prevotella melaninogenica; test: Agar dilution MIC; type: cell-based
[31] = system: Prevotella denticola/loeschii group; test: Agar dilution MIC; type: cell-based
[32] = system: Veillonella spp.; test: Agar dilution MIC; type: cell-based
[33] = system: peptostreptococci; test: Agar dilution MIC, peptostreptococci as a group; type: cell-based, P. asaccharolyticus, P. magnus, P. micros, P. prevotii; settings: 45 strains of peptostreptococci from 4 species; read-out: concentration to which all strains were susceptible (MIC)
[34] = system: Fusobacterium naviforme; test: Agar dilution MIC; type: cell-based; settings: read-out: concentration to which strains were susceptible (MIC)
[35] = system: F. ulcerans; test: Agar dilution MIC; type: cell-based; settings: Fusobacterium ulcerans
[36] = system: Bacteroides fragilis; settings: Goldstein, et al.; cited from earlier work
[37] = system: B. distasonis; settings: Goldstein, et al.; cited from earlier work
[38] = Clostridium, 11 isolates, read-out: Minimal Inhibitory Concentration 90% (MIC90)
[39] = Clostridium, read-out: Minimal Inhibitory Concentration 50% (MIC50)
[40] = read-out: Minimal Inhibitory Concentration 50% (MIC50)
[41] = 13 isolates, read-out: Minimal Inhibitory Concentration 90% (MIC90)
[42] = Porphyromonas, read-out: Minimal Inhibitory Concentration 50% (MIC50)
[43] = Porphyromonas, 11 isolates, read-out: Minimal Inhibitory Concentration 90% (MIC90)

CO/N=C1\CN(c2nc3c(cc2F)c(=O)c(C(=O)O)cn3C2CC2)CC1CN (racemic) [Gemifloxacin, (R,S)-7-(3-aminomethyl-4-methoxyiminopyrrolidin-1-yl)-1-cyclopropyl-6-fluoro-4-oxo-1,4-dihydro-1,8-naphthyridine-3-carboxylic acid]
0.06 to 0.125 µg/mL: Minimal Inhibitory Concentration Range ([19]; 12 isolates) | Minimal Inhibitory Concentration Range ([21]; 11 isolates) | Minimal Inhibitory Concentration Range ([25]; 11 isolates)
0.5 µg/mL: MIC50 [9, 39] | Minimal Inhibitory Concentration 90% (MIC90) ([28]; 16 isolates) | MIC50 ([28]; Prevotella heparinolytica, read-out: Minimal Inhibitory Concentration 50% (MIC50)) | Minimal Inhibitory Concentration 90% (MIC90) ([29]; 11 isolates) | MIC50 ([31]; Prevotella denticola, read-out: Minimal Inhibitory Concentration 50% (MIC50))
relatively susceptible: susceptibility to gemifloxacin [9] | susceptibility to gemifloxacin [11]
>8 µg/mL: Minimal Inhibitory Concentration 90% (MIC90) ([10]; 14 isolates) | Minimal Inhibitory Concentration 90% (MIC90) [15]
0.06 to 0.25 µg/mL: Minimal Inhibitory Concentration Range ([3]; 13 isolates) | Minimal Inhibitory Concentration Range ([20]; 9 isolates) | Minimal Inhibitory Concentration Range ([22]; 10 isolates)
0.06 to 8 µg/mL: Minimal Inhibitory Concentration Range ([6]; 22 isolates) | Minimal Inhibitory Concentration Range ([13]; 19 isolates)
2 µg/mL: Minimal Inhibitory Concentration 90% (MIC90) ([1]; 10 isolates) | MIC50 ([1]; Schaalia odontolytica, read-out: Minimal Inhibitory Concentration 50% (MIC50)) | Minimal Inhibitory Concentration 90% (MIC90) ([7]; 17 isolates) | MIC50 [10, 39] | Minimal Inhibitory Concentration 90% (MIC90) ([11]; 11 isolates) | Minimal Inhibitory Concentration 90% (MIC90) ([27]; 22 isolates) | MIC50 ([27]; Prevotella, read-out: Minimal Inhibitory Concentration 50% (MIC50))
0.125 to 0.25 µg/mL: Minimal Inhibitory Concentration Range ([17]; 11 isolates)
1 µg/mL: MIC50 ([2]; Actinomyces israelii, read-out: Minimal Inhibitory Concentration 50% (MIC50)) | MIC50 ([4]; Anaerobiospirillum succiniciproducens, read-out: Minimal Inhibitory Concentration 50% (MIC50)) | Minimal Inhibitory Concentration 90% (MIC90) ([5]; 11 isolates) | Minimal Inhibitory Concentration 90% (MIC90) ([9]; 11 isolates) | MIC90 ([12]; Thomasclavelia ramosa, 10 isolates, read-out: Minimal Inhibitory Concentration 90% (MIC90)) | MIC50 ([30]; Prevotella melaninogenica, read-out: Minimal Inhibitory Concentration 50% (MIC50)) | MIC50 ([32]; Veillonella, read-out: Minimal Inhibitory Concentration 50% (MIC50))
0.03 µg/mL: MIC50 [18, 40]
0.06 µg/mL: MIC90 [18, 41] | MIC50 ([19]; Parvimonas micra, read-out: Minimal Inhibitory Concentration 50% (MIC50)) | MIC90 ([19]; Parvimonas micra, 12 isolates, read-out: Minimal Inhibitory Concentration 90% (MIC90)) | MIC50 [21, 42] | MIC50 [23, 40] | MIC50 [24, 42] | MIC50 [25, 42]
≤ 2 µg/mL: MIC90 ([1]; Schaalia odontolytica, 10 isolates, read-out: Minimal Inhibitory Concentration 90% (MIC90)) | MIC90 ([2]; Actinomyces israelii, stated in text only) | MIC90 ([5]; Campylobacter gracilis, 11 isolates, read-out: Minimal Inhibitory Concentration 90% (MIC90)) | Minimal Inhibitory Concentration 90% (MIC90) ([6]; 22 isolates, listed as gemifloxacin) | MIC90 ([7]; Campylobacter ureolyticus, 17 isolates, read-out: Minimal Inhibitory Concentration 90% (MIC90)) | MIC90 [9, 38] | MIC90 [11, 38] | MIC90 ([27]; Prevotella, 22 isolates, read-out: Minimal Inhibitory Concentration 90% (MIC90)) | Minimal Inhibitory Concentration 90% (MIC90) ([28]; 16 isolates, listed as gemifloxacin) | Minimal Inhibitory Concentration 90% (MIC90) ([29]; 11 isolates, listed as gemifloxacin) | MIC [34]
0.125 to 2 µg/mL: Minimal Inhibitory Concentration Range ([12]; 10 isolates)
1 to 2 µg/mL: Minimal Inhibitory Concentration Range ([1]; 10 isolates)
showed activity: activity [36]
≤ 0.25 µg/mL: MIC [33]
0.03 to 0.125 µg/mL: Minimal Inhibitory Concentration Range ([24]; 13 isolates)
often resistant: susceptibility to gemifloxacin [10]
only limited activity: activity [37]
0.25 to 0.5 µg/mL: Minimal Inhibitory Concentration Range ([28]; 16 isolates)
≤ 0.015 µg/mL: MIC50 ([5]; Campylobacter gracilis, read-out: Minimal Inhibitory Concentration 50% (MIC50)) | MIC50 ([7]; Campylobacter ureolyticus, read-out: Minimal Inhibitory Concentration 50% (MIC50))
0.25 to 8 µg/mL: Minimal Inhibitory Concentration Range ([31]; 6 isolates)
≥ 4 µg/mL: MIC90 ([8]; Bilophila wadsworthia, 16 isolates, agar supplemented with pyruvate, read-out: Minimal Inhibitory Concentration 90% (MIC90)) | MIC90 ([10]; Clostridium, read-out: Minimal Inhibitory Concentration 90% (MIC90), 14 isolates) | MIC90 ([15]; Fusobacterium russii, read-out: Minimal Inhibitory Concentration 90% (MIC90)) | MIC90 ([26]; Prevotella bivia, 21 isolates, read-out: Minimal Inhibitory Concentration 90% (MIC90)) | MIC90 ([30]; Prevotella melaninogenica, 12 isolates, read-out: Minimal Inhibitory Concentration 90% (MIC90)) | MIC90 ([32]; Veillonella, 24 isolates, read-out: Minimal Inhibitory Concentration 90% (MIC90)) | MIC90 [35]
0.125 µg/mL: MIC50 ([3]; Anaerobiospirillum thomasii, read-out: Minimal Inhibitory Concentration 50% (MIC50)) | MIC90 ([3]; Anaerobiospirillum thomasii, 13 isolates, read-out: Minimal Inhibitory Concentration 90% (MIC90)) | MIC50 ([6]; Bacteroides pyogenes, read-out: Minimal Inhibitory Concentration 50% (MIC50)) | MIC50 ([20]; Anaerococcus prevotii, read-out: Minimal Inhibitory Concentration 50% (MIC50)) | MIC90 [21, 43] | MIC90 [23, 41] | MIC90 ([24]; Porphyromonas, 13 isolates, read-out: Minimal Inhibitory Concentration 90% (MIC90)) | MIC90 [25, 43]
0.5 to 2 µg/mL: Minimal Inhibitory Concentration Range ([2]; 6 isolates) | Minimal Inhibitory Concentration Range ([4]; 3 isolates)
> 8 µg/mL: MIC50 ([15]; Fusobacterium russii, read-out: Minimal Inhibitory Concentration 50% (MIC50)) | MIC50 ([16]; Fusobacterium varium, read-out: Minimal Inhibitory Concentration 50% (MIC50)) | MIC90 ([16]; Fusobacterium varium, 17 isolates, read-out: Minimal Inhibitory Concentration 90% (MIC90))
4 µg/mL: Minimal Inhibitory Concentration 90% (MIC90) ([8]; 16 isolates, agar supplemented with pyruvate) | MIC50 [14, 40] | MIC90 ([14]; 12 isolates, read-out: Minimal Inhibitory Concentration 90% (MIC90))
bimodal pattern: susceptibility pattern of strains [16]
8 µg/mL: MIC90 ([13]; Fusobacterium, GROUP1, 19 isolates, read-out: Minimal Inhibitory Concentration 90% (MIC90)) | Minimal Inhibitory Concentration 90% (MIC90) ([26]; 21 isolates) | MIC50 ([26]; Prevotella bivia, read-out: Minimal Inhibitory Concentration 50% (MIC50)) | Minimal Inhibitory Concentration 90% (MIC90) ([30]; 12 isolates) | Minimal Inhibitory Concentration 90% (MIC90) ([32]; 24 isolates)
0.06 to 1 µg/mL: Minimal Inhibitory Concentration Range ([29]; 11 isolates)
0.5 to 8 µg/mL: Minimal Inhibitory Concentration Range ([27]; 22 isolates)
0.25 µg/mL: Minimal Inhibitory Concentration 90% (MIC90) ([6]; 22 isolates) | MIC50 ([8]; Bilophila wadsworthia, read-out: Minimal Inhibitory Concentration 50% (MIC50)) | MIC50 [11, 39] | MIC50 ([12]; Thomasclavelia ramosa, read-out: Minimal Inhibitory Concentration 50% (MIC50)) | MIC50 ([13]; Fusobacterium, GROUP1, read-out: Minimal Inhibitory Concentration 50% (MIC50)) | MIC50 ([17]; Peptoniphilus asaccharolyticus, read-out: Minimal Inhibitory Concentration 50% (MIC50)) | MIC90 ([17]; Peptoniphilus asaccharolyticus, 11 isolates, read-out: Minimal Inhibitory Concentration 90% (MIC90)) | MIC50 ([22]; Porphyromonas canoris, read-out: Minimal Inhibitory Concentration 50% (MIC50)) | MIC90 ([22]; Porphyromonas canoris, 10 isolates, read-out: Minimal Inhibitory Concentration 90% (MIC90)) | MIC50 ([29]; Prevotella intermedia, read-out: Minimal Inhibitory Concentration 50% (MIC50))
